Assay [1] concerns the target T1, 25 kDa protein band in PC12 SOD1^G93A cells (Rattus norvegicus, UniProt P62260).
T1 construct: we identified a 25 kDa covalently modified protein band in the PC12 SOD1^G93A cell line; endogenous in cells; host or cells: PC12-SOD1^G93A cells (live-cell UV photolabeling, then lysis)
T1 sequence (P62260 1-255): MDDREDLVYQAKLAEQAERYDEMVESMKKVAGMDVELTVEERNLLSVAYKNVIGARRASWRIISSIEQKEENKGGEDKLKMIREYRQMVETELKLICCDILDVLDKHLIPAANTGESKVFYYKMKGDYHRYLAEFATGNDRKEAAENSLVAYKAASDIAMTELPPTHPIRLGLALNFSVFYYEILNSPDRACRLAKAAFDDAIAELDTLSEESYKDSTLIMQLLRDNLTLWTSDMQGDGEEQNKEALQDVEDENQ
The assay can be described thus: Competition of PRAPP photoaffinity labeling of the 25 kDa band in PC12-SOD1^G93A cells. To be noted: 30 μM PRAPP. Type of assay: binding. The method, then: PC12-SOD1^G93A cells were cultured and grown to 90% confluency (in 6-well plates) and washed once with PBS followed by the addition of serum medium containing the appropriate analyte at the indicated concentrations. Three incubation scenarios were studied (at 37 °C): Scenario 1) 12 h preincubation with PRAPP in the absence of MG-132; Scenario 2) 12 h preincubation with PRAPP in the absence of MG-132 followed by an additional 24 h incubation (control); and Scenario 3) 12 h preincubation with PRAPP followed by the addition of MG-132 (100 nM) and an additional 24 h incubation. After incubation, the medium was discarded and cells were washed with PBS (1 × 300 μL). Fresh serum-free medium was added, and the cells were irradiated with UV light (312 nm, 120 V, 60 Hz, 0.2 A [Spectroline model EB-160C], distance ∼4 cm) for 15 min. The medium was removed, cells were washed with PBS (2 × 500 μL), and 200 μL of lysis buffer containing Tris HCl (25 mM, pH 7.6), NaCl (150 mM), 1% NP40, 1% sodium deoxycholate, 0.1% SDS, and protease inhibitor cocktail (Sigma-Aldrich, 1:100 v/v) was added to each well. Complete lysis was observed by a microscope after 10 min at 4 °C with agitation. Each lysate was centrifuged at 4 °C for 5 min at 13,000 rpm, and the resulting supernatant was concentrated with a centrifugal filter (Amicon Ultra Centrifugal Filters 3K cutoff, Millipore), normalized to 1.0 mg/mL by the Bradford assay, and analyzed immediately or stored at −80 °C for subsequent analysis.
In a darkened (wrapped with aluminum foil) Eppendorf tube, each lysate (30 μL [30 μg]) was incubated with 10 μL of the freshly prepared “click” premix containing CuSO4 (5 mM), sodium ascorbate (5 mM), TBTA (200 μM), and N3–Alexa-647 (50 μM) were added to PBS (50 mM, pH 7.4). The corresponding final concentrations within the lysate click incubation were: CuSO4 (1.25 mM), sodium ascorbate (1.25 mM), TBTA (50 μM), and N3–Alexa-647 (12.5 μM). The mixture was vortexed briefly and incubated for 1.5 h at 37 °C in the dark. NuPAGE LDS sample loading buffer (4 × 13 μL) was added, and the mixture was denatured in boiling water for 10 min. SDS-PAGE was performed on Novex Bis-Tris gel 4–12% with MES SDS running buffer (90 V constant for 30 min followed by 100 V for 90 min; load volume = 25 μL). Protein standards that gave appropriate visible and fluorescent bands for our application included the BioRad Precision Plus All Blue Protein Standard and Novex Pre-Stained Protein Standard. In-gel fluorescence was monitored (excitation λ = 635 nm; emission λ = 670 nm) using a Typhoon 9400 (GE Healthcare) fluorimager. Densitometric analysis and image refinement were carried out as needed using ImageJ software (NIH, open source). The contrast and brightness of images were modified using ImageJ and/or Microsoft Word to enhance visualization for publication purposes.

A further assay deals with transgenic mice. The settings on record: earlier work of the authors; cited from earlier work.
The target in another assay is T2, 14-3-3-G (Homo sapiens, UniProt P61981).
T2 construct: purchased Abchem (so in the source)
T2 sequence (P61981 1-247): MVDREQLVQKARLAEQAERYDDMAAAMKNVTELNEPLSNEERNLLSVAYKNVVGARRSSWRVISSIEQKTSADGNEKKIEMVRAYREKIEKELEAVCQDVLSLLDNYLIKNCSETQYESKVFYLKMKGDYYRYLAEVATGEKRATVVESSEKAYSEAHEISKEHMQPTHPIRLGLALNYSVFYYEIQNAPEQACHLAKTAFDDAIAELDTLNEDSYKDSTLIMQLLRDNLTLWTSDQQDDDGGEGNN
The experiment in a line: Fluorescent thermal shift assay (FTSA) with 14-3-3-G. Type of assay: binding. To be noted: 0 and 100 μM P2. On the procedure: His-tagged 14-3-3-E, B, and H plasmids were purchased from Addgene (plasmid ID# 31562, 39128, and 38814, respectively). E. coli (BL21) were transformed with extracted plasmids via heat shock and plated on selected media. Individual colonies were selected, grown, and sequenced to confirm gene presence. 1 L cultures were grown to an OD600 of 0.6 at 37 °C and 220 rpm. Protein expression was induced with 1 mM IPTG and expressed for 12 h at 100 rpm and room temperature (approximately 25 °C). Cells were spun down at 4000 rpm for 15 min at 4 °C and resuspended in lysis buffer containing 50 mM Tris (7.4), 150 mM NaCl, 0.08% DDM, 5 mM imidazole, and 5% glycerol (with an EDTA-free complete mini protease inhibitor cocktail). Cells were lysed via sonication, and the lysate was separated from cell debris by centrifugation at 15,000 rpm, 4 °C, for 45 min. The His-tagged protein was purified using QIAGEN Ni-NTA superflow columns, and the His-tag was removed with TEV protease. His-tag-removed proteins were further purified by size exclusion chromatography. His tag removal and size exclusion chromatography purification were done at the Northwestern University Protein Production core. […]
All of the FTSA experiments were conducted in HEPES buffer (60 mM HEPES, 150 mM NaCl, pH 7.4). […] The fluorescence was measured on a Bio-Rad CFX384 real-time PCR instrument.

In general, EC50 refers to the midpoint of the concentration-response curve.

Take `O=c1cc(COc2cc(Cl)cc(Cl)c2)[nH][nH]1` [P2]: the “competitor to PRAPP ratio at complete disappearance of the band” value in assay [1] was 6. Also, the EC50 in assay [1] (scenario 1, n = 2, read-out: EC50 for the competition with PRAPP (25 kDa band intensity)) came to 11.1 µM. Also, the “increase of the median survival rate” value with transgenic mice is 13%. Also, the “binding (Tm shift)” value at 14-3-3-G is “no binding”.

These data come from paper PMC10823514, “Target Identification of a Class of Pyrazolone Protein Aggregation Inhibitor Therapeutics for Amyotrophic Lateral Sclerosis” (ACS Central Science, 2023).
